For series [1], the target named is T1, GSNOR (Homo sapiens, UniProt P11766).
T1 construct: made in house; host or cells: E. coli (arabinose-induced)
Kind of series: GSNOR assay (inhibition of GSNOR activity, NADH absorbance at 340 nm). The series is classed as biochemical. The settings on record: read-out: IC50 (GSNOR inhibitor activity). As for the experimental part: Various compounds were tested in vitro for their ability to inhibit GSNOR activity. GSNOR expression and purification is described in Biochemistry 2000, 39, 10720-10729.
GSNOR Fermentation: Pre-cultures were grown from stabs of a GSNOR glycerol stock in 2XYT media containing 100 ug/ml ampicillin after an overnight incubation at 37° C. Cells were then added to fresh 2XYT (4 L) containing ampicillin and grown to an OD (A600) of 0.6-0.9 at 37° C. before induction. GSNOR expression was induced with 0.1% arabinose in an overnight incubation at 20° C.
GSNOR Purification: E. coli cell paste was lysed by nitrogen cavitation and the clarified lysate purified by Ni affinity chromatography on an AKTA FPLC (Amersham Pharmacia). The column was eluted in 20 mM Tris pH 8.0/250 mM NaCl with a 0-500 mM imidazole gradient. Eluted GSNOR fractions containing the Smt-GSNOR fusion were digested overnight with Ulp-1 at 4° C. to remove the affinity tag then re-run on the Ni column under the same conditions. GSNOR was recovered in the flowthrough fraction and for crystallography is further purified by Q-Sepharose and Heparin flowthrough chromatography in 20 mM Tris pH 8.0, 1 mM DTT, 10 uM ZnSO4.
GSNOR Assay: GSNO and Enzyme/NADH Solutions are made up fresh each day. The Solutions are filtered and allowed to warm to room temperature. GSNO Solution: 100 mM NaPO4 (pH 7.4), 0.480 mM GSNO. 396 μL of GSNO Solution is added to a cuvette followed by 8 μL of test compound in DMSO (or DMSO only for full reaction control) and mixed with the pipette tip. Compounds to be tested are made up at a stock concentration of 10 mM in 100% DMSO. 2 fold serial dilutions are done in 100% DMSO. 8 μL of each dilution are added to an assay so that the final concentration of DMSO in the assay is 1%. The concentrations of compounds tested range from 100 to 0.003 μM. Enzyme/NADH Solution: 100 mM NaPO4 (pH 7.4), 0.600 mM NADH, 1.0 μg/mL GSNO Reductase. 396 μL of the Enzyme/NADH Solution is added to the cuvette to start the reaction. The cuvette is placed in the Cary 3E UV/Visible Spectrophotometer and the change in 340 nm absorbance/min at 25° C. is recorded for 3 minutes. The assays are done in triplicate for each compound concentration. IC50's for each compound are calculated using the standard curve analysis in the Enzyme Kinetics Module of SigmaPlot.
Final assay conditions: 100 mM NaPO4, pH 7.4, 0.240 mM GSNO, 0.300 mM NADH, 0.5 μg/mL GSNO Reductase and 1% DMSO. Final volume: 800 μL/cuvette.

A short description of series [2]: Mouse pharmacokinetic (PK) study. The series is classed as in vivo. The settings on record: plasma, male BALB/c mice, 10 mg/kg PO vs 2 mg/kg IV, single dose, based on area under the curve. The source says:
The mouse is used to determine the pharmacokinetics of GSNOR inhibitors. This species is widely used to assess the bioavailability of compounds by administering both oral (PO) and intravenous (IV) test articles. Efficacy of the GSNOR inhibitors can be compared by assessing plasma exposure in male BALB/c mice either via IV or PO administration at the times of peak activity.
The GSNOR inhibitor Compound 10 was reconstituted in a phosphate buffered saline (PBS)/10% Solutol (HS 15) clear solution resulting in a concentration of 0.2 mg/mL and administered to mice (2 mg/kg) as a single IV dose. Animals were dosed via the lateral tail vein. […] The plasma was transferred into labeled polypropylene tubes and frozen at −70° C. until analyzed by LC/MS/MS.
The GSNOR inhibitor Compound 10 was reconstituted in 40% Propylene Glycol/40% Propylene Carbonate/20% of a 5% Sucrose clear solution resulting in a concentration of 2 mg/mL and administered to mice (10 mg/kg) as a single oral dose via gavage. […] The plasma was transferred into labeled polypropylene tubes and frozen at −70° C. until analyzed by LC/MS/MS.
Plasma samples at each timepoint were analyzed using a LC-MS/MS with a lower limit of quantification (LLOQ) of 1 ng/mL. Plasma was analyzed to determine the amount of the GSNOR inhibitor in each sample and regression curves were generated for each GSNOR inhibitor in the relevant matrixes. […]

Where [3] appears, read: assay of Example 24, 0.240 mM GSNO, 0.300 mM NADH, pH 7.4, 25° C.

Here are results for 14 compounds from patent US9717706B2, “Chromone inhibitors of S-nitrosoglutathione reductase” (Nivalis Therapeutics, Inc., priority 2010, dated 2017).

Where two headings read alike, the source gives them in different places. A value given as a limit tells only on which side of the number the result lay.

What is called IC50 is the point on the concentration scale where inhibition reaches its midpoint. One may read the bioavailability as dose-corrected exposure relative to a reference, in per cent. Lower therefore signals little systemic uptake.

T1 sequence (P11766 whole entry): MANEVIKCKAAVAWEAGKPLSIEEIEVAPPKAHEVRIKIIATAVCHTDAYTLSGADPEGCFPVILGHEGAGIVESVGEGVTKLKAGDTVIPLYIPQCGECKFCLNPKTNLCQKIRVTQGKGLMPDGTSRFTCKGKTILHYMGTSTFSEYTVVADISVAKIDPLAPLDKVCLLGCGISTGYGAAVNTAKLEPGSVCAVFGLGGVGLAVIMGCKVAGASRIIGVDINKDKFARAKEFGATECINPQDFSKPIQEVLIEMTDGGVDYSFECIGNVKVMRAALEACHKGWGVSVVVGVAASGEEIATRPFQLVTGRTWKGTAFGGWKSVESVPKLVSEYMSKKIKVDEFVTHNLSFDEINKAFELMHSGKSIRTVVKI

Turning to `O=C(O)c1ccc(-c2c(C(F)F)oc3cc(O)ccc3c2=O)cc1` [Example 1, 4-(2-(difluoromethyl)-7-hydroxy-4-oxo-4H-chromen-3-yl)benzoic acid], the IC50 in series [1] (setting [3]) was less than 0.1 µM.

Take `COCc1oc2cc(O)ccc2c(=O)c1-c1ccc(C(=O)O)cc1` [Example 2, 4-(7-hydroxy-2-(methoxymethyl)-4-oxo-4H-chromen-3-yl)benzoic acid]: in series [1] (setting [3]), the IC50 was less than 0.5 µM. Same read-out and setting: the same measure for `CC(C)c1oc2cc(O)ccc2c(=O)c1-c1ccc(C(=O)O)cc1` [Example 3, 4-(7-hydroxy-2-isopropyl-4-oxo-4H-chromen-3-yl)benzoic acid]: less than 0.5 µM; for `Cc1oc2cc(O)ccc2c(=O)c1-c1ccc(C(=O)O)cc1` [Example 5, 4-(7-hydroxy-2-methyl-4-oxo-4H-chromen-3-yl)benzoic acid]: less than 0.5 µM; for `O=C(O)c1ccc(-c2c(Cc3ccccc3)oc3cc(O)ccc3c2=O)cc1` [Example 6, 4-(2-benzyl-7-hydroxy-4-oxo-4H-chromen-3-yl)benzoic acid]: less than 0.5 µM. In the case of `O=C(O)c1ccc(-c2c(C(F)(F)F)oc3cc(O)ccc3c2=O)cc1` [Example 10, 4-(7-hydroxy-4-oxo-2-(trifluoromethyl)-4H-chromen-3-yl)benzoic acid], the bioavailability in series [2] is greater than 17%. Also, the IC50 in series [1] (setting [3]) was less than 0.1 µM. For `O=C(O)c1ccc(-c2c(C(F)(F)F)oc3cc(O)c(F)cc3c2=O)cc1` [Example 13, 4-(6-fluoro-7-hydroxy-4-oxo-2-(trifluoromethyl)-4H-chromen-3-yl)benzoic acid], in series [1] (setting [3]), the IC50 is less than 0.5 µM. The same measure, in the same setting: as for `O=C(O)c1ccc(-c2c(C(F)(F)F)oc3cc(O)ccc3c2=O)cc1F` [Example 14, 2-fluoro-4-(7-hydroxy-4-oxo-2-(trifluoromethyl)-4H-chromen-3-yl)benzoic acid], the figure is less than 0.1 µM. On the same count and under the same terms, the same measure for `O=C(O)c1ccc(-c2c(C(F)(F)F)oc3cc(O)ccc3c2=O)c(Cl)c1` [Example 15, 3-chloro-4-(7-hydroxy-4-oxo-2-(trifluoromethyl)-4H-chromen-3-yl)benzoic acid]: less than 0.1 µM. On to `CC(F)(F)c1oc2cc(O)ccc2c(=O)c1-c1ccc(C(=O)O)cc1` [Example 16, 4-(2-(1,1-difluoroethyl)-7-hydroxy-4-oxo-4H-chromen-3-yl)benzoic acid], for which the IC50 in series [1] (setting [3]) is less than 0.1 µM.

On to `O=C(O)c1ccc(-c2c(C(F)(F)F)oc3cc(O)ccc3c2=O)cc1Cl` [Example 18, 2-chloro-4-(7-hydroxy-4-oxo-2-(trifluoromethyl)-4H-chromen-3-yl)benzoic acid], for which the IC50 in series [1] (setting [3]) is less than 0.1 µM. Turning to `CCC(F)(F)c1oc2cc(O)ccc2c(=O)c1-c1ccc(C(=O)O)cc1` [Example 19, 4-(2-(1,1-difluoropropyl)-7-hydroxy-4-oxo-4H-chromen-3-yl)benzoic acid], the IC50 in series [1] (setting [3]) is less than 0.5 µM. For `COc1cc(C(=O)O)ccc1-c1c(C(F)(F)F)oc2cc(O)ccc2c1=O` [Example 20, 4-(7-hydroxy-4-oxo-2-(trifluoromethyl)-4H-chromen-3-yl)-3-methoxybenzoic acid], the IC50 in series [1] (setting [3]) is less than 0.1 µM. Regarding `O=C(O)c1ccc(-c2coc3cc(O)ccc3c2=O)cc1` [Example 22, 4-(7-hydroxy-4-oxo-4H-chromen-3-yl)benzoic acid, reference compound], in series [1] (method described in Example 24, comparative example), the IC50 turned out to be 0.135 µM.
